# Assays:
# Experiment in all cases: Test D controlled growth environment herbicide test, pre- and postemergence
# Format in all cases: in vivo
# [1] = system: barley, winter (winter barley, Hordeum vulgare)
# Method in brief: (§1)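 Pre-emergence: seeds sown in silt loam soil were sprayed with compound in a non-phytotoxic solvent mix containing surfactant. Post-emergence: plants at 2 to 18 cm (1- to 4-leaf stage) in peat moss/vermiculite medium got the same formulation. Visual 0–100 rating versus controls after 14 to 21 d.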
# [2] = system: ryegrass, Italian (Italian ryegrass, Lolium multiflorum)
# Method in brief: as §1
# [3] = system: pigweed (Amaranthus retroflexus)
# Method in brief: as §1
# [4] = system: lambsquarters (Chenopodium album)
# Method in brief: as §1
# [5] = system: bluegrass (annual bluegrass, Poa annua)
# Method in brief: as §1
# [6] = system: foxtail, green (green foxtail, Setaria viridis)
# Method in brief: as §1
# [7] = system: wheat, spring (spring wheat, Triticum aestivum)
# Method in brief: as §1
# [8] = system: canarygrass (Phalaris minor)
# Method in brief: as §1
# [9] = system: buckwheat, wild (wild buckwheat, Polygonum convolvulus)
# Method in brief: as §1
# [10] = system: galium (catchweed bedstraw, Galium aparine)
# Method in brief: as §1
# [11] = system: windgrass (Apera spica-venti)
# Method in brief: as §1
# [12] = system: bromegrass, downy (downy bromegrass, Bromus tectorum)
# Method in brief: as §1
# [13] = system: blackgrass (Alopecurus myosuroides)
# Method in brief: as §1
# [14] = Postemergence, 31 g ai/ha, scale 0 to 100 (0 no effect, 100 complete control)
# [15] = Postemergence, 125 g ai/ha, visual rating on scale 0 (no effect) to 100 (complete control), 14 to 21 d
# [16] = Postemergence, 250 g ai/ha, scale 0 to 100 (0 no effect, 100 complete control)
# [17] = Preemergence, 62 g ai/ha, scale 0 to 100 (0 no effect, 100 complete control)
# [18] = Preemergence, 125 g ai/ha, scale 0 to 100 (0 no effect, 100 complete control)
# [19] = Preemergence, 250 g ai/ha, scale 0 to 100, 0 no effect, 100 complete control
# [20] = postemergence, 62 g ai/ha, scale 0 to 100, 0 no effect, 100 complete control
smiles,measurement,setting,value
"Cc1cc(C)c2sc(C)c(-c3c(O)c(C)nn(C)c3=O)c2c1 [Compound 2, 5-hydroxy-2,6-dimethyl-4-(2,5,7-trimethylbenzo[b]thien-3-yl)-3(2H)-pyridazinone]","Plant response rating, Barley, Winter",[1]; [14],10
same,"Plant response rating, Barley, Winter",[1]; [15],15
same,"Plant response rating, Barley, Winter",[1]; [16],10
same,"Plant response rating (scale of 0 to 100), Barley, Winter","[1]; Preemergence, 31 g ai/ha",0
same,"Plant response rating, Barley, Winter",[1]; [17],0
same,"Plant response rating, Barley, Winter",[1]; [18],0
same,"Barley, Winter plant response rating",[1]; [19],0
same,"Plant response rating, Barley, Winter",[1]; [20],10
same,"Ryegrass, Italian plant response rating",[2]; [14],70
same,"Plant response rating, Ryegrass, Italian",[2]; [15],85
same,"Plant response rating, Ryegrass, Italian",[2]; [16],90
same,"Plant response rating (scale of 0 to 100), Ryegrass, Italian","[2]; Preemergence, 31 g ai/ha",85
same,"Plant response rating, Ryegrass, Italian",[2]; [17],95
same,"Plant response rating, Ryegrass, Italian",[2]; [18],100
same,"Plant response rating, Ryegrass, Italian",[2]; [19],100
same,"Plant response rating, Ryegrass, Italian",[2]; [20],80
same,Pigweed plant response rating,[3]; [14],70
same,"Plant response rating, Pigweed",[3]; [15],85
same,"Plant response rating, Pigweed",[3]; [16],95
same,"Plant response rating (scale of 0 to 100), Pigweed","[3]; Preemergence, 31 g ai/ha",25
same,"Plant response rating, Pigweed",[3]; [17],50
same,"Plant response rating, Pigweed",[3]; [18],65
same,"Plant response rating, Pigweed",[3]; [19],100
same,"Plant response rating, Pigweed",[3]; [20],80
same,Lambsquarters plant response rating,[4]; [14],90
same,"Plant response rating, Lambsquarters",[4]; [15],95
same,"Plant response rating, Lambsquarters",[4]; [16],100
same,"Plant response rating (scale of 0 to 100), Lambsquarters","[4]; Preemergence, 31 g ai/ha",15
same,"Plant response rating, Lambsquarters",[4]; [17],60
same,"Plant response rating, Lambsquarters",[4]; [18],100
same,"Plant response rating, Lambsquarters",[4]; [19],100
same,"Plant response rating, Lambsquarters",[4]; [20],90
same,Bluegrass plant response rating,[5]; [14],5
same,"Plant response rating, Bluegrass",[5]; [15],5
same,"Plant response rating, Bluegrass",[5]; [16],15
same,"Plant response rating (scale of 0 to 100), Bluegrass","[5]; Preemergence, 31 g ai/ha",0
same,"Plant response rating, Bluegrass",[5]; [17],15
same,"Plant response rating, Bluegrass",[5]; [18],30
same,Bluegrass plant response rating,[5]; [19],50
same,"Plant response rating, Bluegrass",[5]; [20],10
same,"Foxtail, Green plant response rating",[6]; [14],70
same,"Plant response rating, Foxtail, Green",[6]; [15],95
same,"Plant response rating, Foxtail, Green",[6]; [16],100
same,"Plant response rating (scale of 0 to 100), Foxtail, Green","[6]; Preemergence, 31 g ai/ha",65
same,"Plant response rating, Foxtail, Green",[6]; [17],100
same,"Plant response rating, Foxtail, Green",[6]; [18],100
same,"Plant response rating, Foxtail, Green",[6]; [19],100
same,"Plant response rating, Foxtail, Green",[6]; [20],80
same,"Wheat, Spring plant response rating",[7]; [14],0
same,"Plant response rating, Wheat, Spring",[7]; [15],10
same,"Plant response rating, Wheat, Spring",[7]; [16],25
same,"Plant response rating (scale of 0 to 100), Wheat, Spring","[7]; Preemergence, 31 g ai/ha",0
same,"Plant response rating, Wheat, Spring",[7]; [17],0
same,"Plant response rating, Wheat, Spring",[7]; [18],5
same,"Plant response rating, Wheat, Spring",[7]; [19],10
same,"Plant response rating, Wheat, Spring",[7]; [20],0
same,Canarygrass plant response rating,[8]; [14],25
same,"Plant response rating, Canarygrass",[8]; [15],55
same,"Plant response rating, Canarygrass",[8]; [16],75
same,"Plant response rating (scale of 0 to 100), Canarygrass","[8]; Preemergence, 31 g ai/ha",40
same,"Plant response rating, Canarygrass",[8]; [17],60
same,"Plant response rating, Canarygrass",[8]; [18],85
same,"Plant response rating, Canarygrass",[8]; [19],90
same,"Plant response rating, Canarygrass",[8]; [20],40
same,"Buckwheat, Wild plant response rating",[9]; [14],85
same,"Plant response rating, Buckwheat, Wild",[9]; [15],100
same,"Plant response rating, Buckwheat, Wild",[9]; [16],100
same,"Plant response rating, Buckwheat, Wild",[9]; [17],10
same,"Plant response rating, Buckwheat, Wild",[9]; [18],100
same,"Plant response rating, Buckwheat, Wild",[9]; [19],100
same,"Plant response rating, Buckwheat, Wild",[9]; [20],95
same,Galium plant response rating,[10]; [14],85
same,"Plant response rating, Galium",[10]; [15],100
same,"Plant response rating, Galium",[10]; [16],100
same,"Plant response rating (scale of 0 to 100), Galium","[10]; Preemergence, 31 g ai/ha",100
same,"Plant response rating, Galium",[10]; [17],85
same,"Plant response rating, Galium",[10]; [18],100
same,"Plant response rating, Galium",[10]; [19],100
same,"Plant response rating, Galium",[10]; [20],100
same,Windgrass plant response rating,[11]; [14],10
same,"Plant response rating, Windgrass",[11]; [15],55
same,"Plant response rating, Windgrass",[11]; [16],70
same,"Plant response rating (scale of 0 to 100), Windgrass","[11]; Preemergence, 31 g ai/ha",60
same,"Plant response rating, Windgrass",[11]; [17],75
same,"Plant response rating, Windgrass",[11]; [18],95
same,"Plant response rating, Windgrass",[11]; [19],100
same,"Plant response rating, Windgrass",[11]; [20],25
same,"Bromegrass, Downy plant response rating",[12]; [14],10
same,"Plant response rating, Bromegrass, Downy",[12]; [15],10
same,"Plant response rating, Bromegrass, Downy",[12]; [16],20
same,"Plant response rating (scale of 0 to 100), Bromegrass, Downy","[12]; Preemergence, 31 g ai/ha",10
same,"Plant response rating, Bromegrass, Downy",[12]; [17],50
same,"Plant response rating, Bromegrass, Downy",[12]; [18],65
same,"Plant response rating, Bromegrass, Downy",[12]; [19],70
same,"Plant response rating, Bromegrass, Downy",[12]; [20],10
same,Blackgrass plant response rating,[13]; [14],65
same,"Plant response rating, Blackgrass",[13]; [15],80
same,"Plant response rating, Blackgrass",[13]; [16],90
same,"Plant response rating (scale of 0 to 100), Blackgrass","[13]; Preemergence, 31 g ai/ha",65
same,"Plant response rating, Blackgrass",[13]; [17],75
same,"Plant response rating, Blackgrass",[13]; [18],85
same,Blackgrass plant response rating,[13]; [19],90
same,"Plant response rating, Blackgrass",[13]; [20],70

# Reference: patent US10597388B2, “Pyridazinone herbicides” (FMC CORPORATION, priority 2014, dated 2020)
